Consider 23 compounds from US9371320B2, “Heterocyclic compound” (TAKEDA PHARMACEUTICAL COMPANY LIMITED, priority 2012, dated 2016).

In one assay the target is T1, JAK1 (Homo sapiens, UniProt P23458).
T1 construct: purchased Invitrogen
In words: JAK1 enzyme inhibition test (LANCE method). The format is biochemical. The settings on record: for inhibition at 1 µM: test compound 1 μM, read-out: Inhibitory rate (%) JAK1 1 μM; for inhibition at 10 µM: read-out: Inhibitory rate (%) JAK1 10 μM. As for the experimental part:
JAK1 Enzyme Inhibition Test
(§1) JAK1 enzyme inhibitory activity of test compounds was measured by LANCE method (PerkinElmer). First, a test compound diluted with assay buffer (50 mM HEPES (pH=7.5), 10 mM MgCl2, 1 mM EGTA, 2 mM DTT, 0.01% Tween20, 0.01% BSA) was added to 384-well plate at 2 μL each. Then, a JAK1 (Invitrogen) solution and a fluorescence-labeled peptide substrate (ULight-JAK1, PerkinElmer) solution diluted with assay buffer at 187.5 ng/mL and 300 nM, respectively were added at 2 μL each. Then, enzyme reaction was started by adding 2 μL each of ATP solution prepared with assay buffer at 150 μM. After the reaction at room temperature for 1 hr, Detection Buffer (PerkinElmer) prepared to be 20 mM EDTA, 4 nM europium-labeled anti-phosphotyrosine antibody (PerkinElmer) was added at 6 μL each. After standing at room temperature for 1 hr, fluorescence intensity (excitation wavelength 340 nm, fluorescence wavelength 665 nm, delay time 100 microsecond) was measured by a plate reader, Envision (PerkinElmer). The inhibitory activity of each compound was calculated as relative value where fluorescence intensity of a well without enzyme is considered as 100% inhibition.
(In general: In TR-FRET formats the signal depends on donor and acceptor labels being close together.)

In the next assay the target is T2, Tyk2 (Homo sapiens, UniProt P29597).
T2 construct: purchased Invitrogen
In words: Tyk2 enzyme inhibition test (LANCE method). It is filed as biochemical. The settings on record: for inhibition at 1 µM: test compound 1 μM, read-out: Inhibitory rate (%) Tyk2 1 μM. As for the experimental part:
Tyk2 Enzyme Inhibition Test
as §1, with “Tyk2 enzyme” for “JAK1 enzyme”, “a Tyk2” for “a JAK1”, “at 375” for “at 187.5”, “at 30” for “at 150”

The mark [1] stands for this setting: test compound 10 μM (Ex. 182-220), beside Tyk2 1 μM.

Like-named read-outs stand apart in the source and are kept apart here.

T1 sequence (P23458 whole entry): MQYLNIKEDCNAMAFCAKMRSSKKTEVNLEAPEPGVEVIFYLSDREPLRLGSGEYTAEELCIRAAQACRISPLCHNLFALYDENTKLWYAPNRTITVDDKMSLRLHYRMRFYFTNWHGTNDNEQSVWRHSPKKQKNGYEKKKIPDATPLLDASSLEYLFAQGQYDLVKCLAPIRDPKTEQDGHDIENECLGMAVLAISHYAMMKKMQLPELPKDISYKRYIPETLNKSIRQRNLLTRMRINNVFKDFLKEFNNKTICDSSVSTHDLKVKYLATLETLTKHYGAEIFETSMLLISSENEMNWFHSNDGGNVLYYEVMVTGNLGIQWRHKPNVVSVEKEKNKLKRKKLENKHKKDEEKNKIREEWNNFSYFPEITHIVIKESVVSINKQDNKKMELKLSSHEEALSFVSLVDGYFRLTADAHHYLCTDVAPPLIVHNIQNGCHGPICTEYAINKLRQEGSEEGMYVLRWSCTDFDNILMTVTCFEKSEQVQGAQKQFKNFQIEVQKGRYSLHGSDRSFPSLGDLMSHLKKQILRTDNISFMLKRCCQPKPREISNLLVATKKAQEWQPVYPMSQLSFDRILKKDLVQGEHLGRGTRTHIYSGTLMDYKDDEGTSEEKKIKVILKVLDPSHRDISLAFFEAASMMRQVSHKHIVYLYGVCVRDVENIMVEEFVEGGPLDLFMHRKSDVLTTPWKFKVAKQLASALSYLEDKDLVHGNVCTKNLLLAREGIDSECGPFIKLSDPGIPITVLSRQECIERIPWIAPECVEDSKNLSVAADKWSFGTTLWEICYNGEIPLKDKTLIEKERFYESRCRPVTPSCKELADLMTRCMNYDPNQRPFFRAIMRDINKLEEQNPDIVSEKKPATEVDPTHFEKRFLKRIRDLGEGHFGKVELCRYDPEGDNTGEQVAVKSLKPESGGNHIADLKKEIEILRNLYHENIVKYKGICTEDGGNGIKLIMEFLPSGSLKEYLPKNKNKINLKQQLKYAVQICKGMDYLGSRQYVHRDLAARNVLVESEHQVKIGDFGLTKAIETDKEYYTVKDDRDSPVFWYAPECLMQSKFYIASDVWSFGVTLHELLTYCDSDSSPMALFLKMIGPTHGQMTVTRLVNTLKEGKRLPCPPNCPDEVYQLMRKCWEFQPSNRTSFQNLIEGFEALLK
T2 sequence (P29597 whole entry): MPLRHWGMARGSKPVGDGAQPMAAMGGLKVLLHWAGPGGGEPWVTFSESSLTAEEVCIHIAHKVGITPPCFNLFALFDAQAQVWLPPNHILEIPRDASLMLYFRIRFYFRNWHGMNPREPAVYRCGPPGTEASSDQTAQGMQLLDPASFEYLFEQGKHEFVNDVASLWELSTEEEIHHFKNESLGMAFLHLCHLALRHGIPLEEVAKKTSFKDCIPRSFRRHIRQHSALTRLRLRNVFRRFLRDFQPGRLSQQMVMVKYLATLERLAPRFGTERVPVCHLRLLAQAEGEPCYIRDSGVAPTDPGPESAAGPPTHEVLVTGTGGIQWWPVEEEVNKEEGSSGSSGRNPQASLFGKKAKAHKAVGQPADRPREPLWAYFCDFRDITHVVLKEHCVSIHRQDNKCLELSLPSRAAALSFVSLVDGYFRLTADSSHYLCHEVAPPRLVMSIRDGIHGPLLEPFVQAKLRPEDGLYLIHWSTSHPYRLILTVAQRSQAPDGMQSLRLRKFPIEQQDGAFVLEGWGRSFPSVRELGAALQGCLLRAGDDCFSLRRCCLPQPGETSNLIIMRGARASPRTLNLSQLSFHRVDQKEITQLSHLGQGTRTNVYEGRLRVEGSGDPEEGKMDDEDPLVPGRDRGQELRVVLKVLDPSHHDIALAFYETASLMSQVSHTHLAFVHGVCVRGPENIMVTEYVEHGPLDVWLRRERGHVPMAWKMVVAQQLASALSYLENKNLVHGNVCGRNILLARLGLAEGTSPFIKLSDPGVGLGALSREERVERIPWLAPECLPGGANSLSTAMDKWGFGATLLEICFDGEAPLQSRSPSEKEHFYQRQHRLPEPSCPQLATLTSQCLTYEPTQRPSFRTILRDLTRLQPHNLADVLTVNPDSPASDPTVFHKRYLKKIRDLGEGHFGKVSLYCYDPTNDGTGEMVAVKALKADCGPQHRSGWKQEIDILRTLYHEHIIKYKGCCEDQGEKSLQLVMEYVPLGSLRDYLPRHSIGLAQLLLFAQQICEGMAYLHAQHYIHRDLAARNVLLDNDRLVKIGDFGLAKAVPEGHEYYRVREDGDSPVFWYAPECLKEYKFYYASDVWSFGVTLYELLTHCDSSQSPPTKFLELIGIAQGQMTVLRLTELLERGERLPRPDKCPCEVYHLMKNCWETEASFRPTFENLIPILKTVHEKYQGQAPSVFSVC

Regarding `N#Cc1c[nH]c(=O)c2c(-c3cnn(CC(N)=O)c3)cn(C3CCCC3)c12` [Example 98, 2-(4-(7-cyano-1-cyclopentyl-4-oxo-4,5-dihydro-1H-pyrrolo[3,2-c]pyridin-3-yl)-1H-pyrazol-1-yl)acetamide], the results for the inhibition at 1 µM on JAK1 and on Tyk2 were 78% and 97%, respectively.

For `NS(=O)(=O)c1ccc(-n2nc(C3CCCC3)c3cc[nH]c(=O)c32)cc1` [Example 75, 4-(3-cyclopentyl-7-oxo-6,7-dihydro-1H-pyrazolo[3,4-c]pyridin-1-yl)benzenesulfonamide], the inhibition at 1 µM at JAK1 worked out at 93%; on Tyk2 it was 84%.

With `O=C1NCCN1c1ccc(-c2nn(-c3c(F)cccc3F)c3cc[nH]c(=O)c23)cc1` [Example 276, 1-(2,6-difluorophenyl)-3-(4-(2-oxoimidazolidin-1-yl)phenyl)-1,5-dihydro-4H-pyrazolo[4,3-c]pyridin-4-one], the values for the inhibition at 1 µM at JAK1 and at Tyk2 were 91% and 99%, respectively.

As to `CC(=O)Nc1ccc(-c2nn(-c3c(F)cccc3F)c3cc[nH]c(=O)c23)cc1` [Example 277, N-(4-(1-(2,6-difluorophenyl)-4-oxo-4,5-dihydro-1H-pyrazolo[4,3-c]pyridin-3-yl)phenyl)acetamide], the inhibition at 1 µM on JAK1 turned out to be 95%; at Tyk2, 99%.

`CNC(=O)c1cc(-c2nn(C3CCCC3)c3cc[nH]c(=O)c23)cs1` [Example 155, 4-(1-cyclopentyl-4-oxo-4,5-dihydro-1H-pyrazolo[4,3-c]pyridin-3-yl)-N-methylthiophene-2-carboxamide]: the inhibition at 1 µM stood at 100% at JAK1 and 99% at Tyk2.

Consider `CNC(=O)c1ccc(-c2nn(-c3c(F)cccc3F)c3cc[nH]c(=O)c23)cc1` [Example 180, 4-(1-(2,6-difluorophenyl)-4-oxo-4,5-dihydro-1H-pyrazolo[4,3-c]pyridin-3-yl)-N-methylbenzamide], for which the figures for the inhibition at 1 µM at JAK1 and at Tyk2 were 92% and 101%, respectively.

In the case of `N#Cc1c[nH]c(=O)c2c(-c3cnn(C4CC4)c3)cn(C3CCCC3)c12` [Example 138, 1-cyclopentyl-3-(1-cyclopropyl-1H-pyrazol-4-yl)-4-oxo-4,5-dihydro-1H-pyrrolo[3,2-c]pyridine-7-carbonitrile], the inhibition at 1 µM was determined as 94% on JAK1 and 99% at Tyk2.

On to `CC(C)(C)n1nc(Nc2ccccc2)c2c(=O)[nH]ccc21` [Example 250, 3-anilino-1-tert-butyl-1,5-dihydro-4H-pyrazolo[4,3-c]pyridin-4-one], for which the inhibition at 1 µM at JAK1 was found to be 93%; at Tyk2 it was 69%.

With `CC(C)(C)n1nc(N)c2c(=O)[nH]ccc21` [Example 264, 3-amino-1-tert-butyl-1,5-dihydro-4H-pyrazolo[4,3-c]pyridin-4-one], the inhibition at 10 µM on JAK1 (test compound 10 μM) amounted to 44%; on Tyk2 (test compound 10 μM, read-out: Inhibitory rate (%) Tyk2 10 μM), 12%.

On to `NC(=O)Cn1cc(-c2nn(-c3c(F)cccc3F)c3c(Br)c[nH]c(=O)c23)cn1` [Example 175, 2-(4-(7-bromo-1-(2,6-difluorophenyl)-4-oxo-4,5-dihydro-1H-pyrazolo[4,3-c]pyridin-3-yl)-1H-pyrazol-1-yl)acetamide], for which the inhibition at 1 µM at JAK1 worked out at 86%; at Tyk2 it was 100%.

`NS(=O)(=O)c1ccc(-c2nn(-c3c(F)cccc3F)c3cc[nH]c(=O)c23)cc1` [Example 35, 4-(1-(2,6-difluorophenyl)-4-oxo-4,5-dihydro-1H-pyrazolo[4,3-c]pyridin-3-yl)benzenesulfonamide]: the inhibition at 1 µM at JAK1 stood at 99%; on Tyk2 it was 97%.

For the compound `CCC(CC)n1nc(-c2csc(C(N)=O)c2)c2c(=O)[nH]ccc21` [Example 149, 4-(4-oxo-1-(pentan-3-yl)-4,5-dihydro-1H-pyrazolo[4,3-c]pyridin-3-yl)thiophene-2-carboxamide], the inhibition at 1 µM on JAK1 is 100%; at Tyk2, 99%.

For the compound `COc1ccc(-c2nn(C3CCCC3)c3cc[nH]c(=O)c23)cc1` [Example 46, 1-cyclopentyl-3-(4-methoxyphenyl)-1,5-dihydro-4H-pyrazolo[4,3-c]pyridin-4-one], the inhibition at 1 µM worked out at 91% on JAK1 and 95% on Tyk2.

Take `NC(=O)Cc1cccc(-c2nn(C3CCCC3)c3cc[nH]c(=O)c23)c1` [Example 158, 2-(3-(1-cyclopentyl-4-oxo-4,5-dihydro-1H-pyrazolo[4,3-c]pyridin-3-yl)phenyl)acetamide]: the inhibition at 1 µM on JAK1 and at Tyk2 was 91% each time.

As to `N#CCc1ccc(-c2nn(-c3c(F)cccc3F)c3c(Br)c[nH]c(=O)c23)cc1` [Example 104, (4-(7-bromo-1-(2,6-difluorophenyl)-4-oxo-4,5-dihydro-1H-pyrazolo[4,3-c]pyridin-3-yl)phenyl)acetonitrile], the inhibition at 1 µM at JAK1 is 94%; at Tyk2, 99%.

Regarding `O=c1[nH]ccc2c1c(-c1cccc(CO)c1)nn2-c1c(F)cccc1F` [Example 278, 1-(2,6-difluorophenyl)-3-(3-(hydroxymethyl)phenyl)-1,5-dihydro-4H-pyrazolo[4,3-c]pyridin-4-one-], the inhibition at 1 µM was found to be 92% on JAK1 and 98% on Tyk2.

Take `CCC1(O)CCC(n2nc(-c3ccc(S(N)(=O)=O)cc3)c3c(=O)[nH]ccc32)CC1` (stereo not shown) [Example 209, 4-(1-(4-ethyl-4-hydroxycyclohexyl)-4-oxo-4,5-dihydro-1H-pyrazolo[4,3-c]pyridin-3-yl)benzenesulfonamide]: the inhibition at 10 µM at JAK1 (setting [1]) was 99%. The inhibition at 1 µM on Tyk2 was 99%.

In the case of `NS(=O)(=O)c1ccc(-c2nn(-c3ccccc3F)c3cc[nH]c(=O)c23)cc1` [Example 213, 4-(1-(2-fluorophenyl)-4-oxo-4,5-dihydro-1H-pyrazolo[4,3-c]pyridin-3-yl)benzenesulfonamide], the inhibition at 10 µM at JAK1 (setting [1]) was found to be 98%. Also, the inhibition at 1 µM at Tyk2 turned out to be 99%.

In the case of `NC(=O)c1ccc(-c2nn(C3CCCC3)c3cc[nH]c(=O)c23)cc1` [Example 142, 4-(1-cyclopentyl-4-oxo-4,5-dihydro-1H-pyrazolo[4,3-c]pyridin-3-yl)benzamide], the results for the inhibition at 1 µM on JAK1 and on Tyk2 were 96% and 97%, respectively.

Turning to `O=c1[nH]ccc2c1c(-c1ccc([N+](=O)[O-])cc1)nn2C1CCCC1` [Example 57, 1-cyclopentyl-3-(4-nitrophenyl)-1,5-dihydro-4H-pyrazolo[4,3-c]pyridin-4-one], the results for the inhibition at 1 µM on JAK1 and at Tyk2 were 88% and 81%, respectively.

Take `CN(C)NC(=O)c1ccc(-c2nn(-c3c(F)cccc3F)c3cc[nH]c(=O)c23)cc1` [Example 289, 4-(1-(2,6-difluorophenyl)-4-oxo-4,5-dihydro-1H-pyrazolo[4,3-c]pyridin-3-yl)-N′,N′-dimethylbenzhydrazide]: the results for the inhibition at 1 µM at JAK1 and at Tyk2 were 92% and 99%, respectively.

With `NC(=O)c1cccc(-c2nn(-c3c(F)cccc3F)c3cc[nH]c(=O)c23)c1` [Example 255, 3-(1-(2,6-difluorophenyl)-4-oxo-4,5-dihydro-1H-pyrazolo[4,3-c]pyridin-3-yl)benzamide], the inhibition at 1 µM on JAK1 came out at 93%; on Tyk2, 98%.

For `N#CCc1cccc(-c2nn(C3CCCC3)c3cc[nH]c(=O)c23)c1` [Example 128, (3-(1-cyclopentyl-4-oxo-4,5-dihydro-1H-pyrazolo[4,3-c]pyridin-3-yl)phenyl)acetonitrile], the inhibition at 1 µM at JAK1 and on Tyk2 was 93% throughout.
